This note sets out measurements from BindingDB's records for doi:10.1016/j.bmcl.2006.01.055 (Bristol-Myers Squibb Pharmaceutical Research Institute, 2006).

The nature of the assay: Inhibition of beta-amyloid peptide production in CHO N9 cell line.

For `CCC[C@H](C(N)=O)[C@@H](CC(C)C)C(=O)N[C@H]1CCCCN(Cc2cccc(Nc3ccccc3Cl)c2)C1=O`, the IC50 was 0.029 µM. Turning to `CCC[C@H](C(N)=O)[C@@H](CC(C)C)C(=O)N[C@H]1CCCCN(Cc2cccc(Nc3cccc(OC)c3)c2)C1=O`, the IC50 amounted to 0.054 µM. Compound `CCC[C@H](C(N)=O)[C@@H](CC(C)C)C(=O)N[C@H]1CCCCN(Cc2cccc(Nc3ccc(C(F)(F)F)cc3)c2)C1=O` came in with an IC50 of 0.03 µM. Compound `CCC[C@H](C(=O)NC1CCCC1)[C@@H](CC(C)C)C(=O)N[C@H]1CCCCN(Cc2cccc(Oc3ccccc3)c2)C1=O` had an IC50 of 6 µM. Take `CCC[C@H](C(N)=O)[C@@H](CC(C)C)C(=O)N[C@H]1CCCCN(Cc2cccc(Nc3ccc(F)c(Cl)c3)c2)C1=O`: the midpoint of inhibition, the IC50, lay at 0.017 µM. `CCC[C@H](C(=O)NCc1ccco1)[C@@H](CC(C)C)C(=O)N[C@H]1CCCCN(Cc2cccc(Oc3ccccc3)c2)C1=O`: half-maximal inhibition (IC50) was put at 3 µM. As to `CCCCNC(=O)[C@@H](CCC)[C@@H](CC(C)C)C(=O)N[C@H]1CCCCN(Cc2cccc(Oc3ccccc3)c2)C1=O`, the midpoint of inhibition, the IC50, lay at 5 µM. `CCC[C@H](C(N)=O)[C@@H](CC(C)C)C(=O)N[C@H]1CCCCN(Cc2cccc(Nc3ccc(OC)cc3)c2)C1=O` came in with an IC50 of 0.16 µM. As to `CCC[C@H](C(N)=O)[C@@H](CC(C)C)C(=O)N[C@H]1CCCCN(Cc2cccc(Nc3ccc4c(c3)OCO4)c2)C1=O`, inhibition was half-maximal at 0.152 µM (IC50). Consider `CCC[C@H](C(=O)NO)[C@@H](CC(C)C)C(=O)N[C@H]1CCCCN(Cc2ccccc2)C1=O`, for which the IC50 was 6.8 µM.

In turn, `CCC[C@H](C(=O)NC/C=C/Cc1ccccc1)[C@@H](CC(C)C)C(=O)N[C@H]1CCCCN(Cc2cccc(Oc3ccccc3)c2)C1=O` had an IC50 of 3 µM.

Take `CCC[C@H](C(N)=O)[C@@H](CC(C)C)C(=O)N[C@H]1CCCCN(Cc2cccc(Nc3cccc(C)c3)c2)C1=O`: the midpoint of inhibition, the IC50, lay at 0.017 µM. The compound `CCC[C@H](C(N)=O)[C@@H](CC(C)C)C(=O)N[C@H]1CCCCN(Cc2cccc(Nc3ccccc3)c2)C1=O` [(2R,3S)-N1-((S)-1-(3-(phenylamino)benzyl)-2-oxoazepan-3-yl)-2-isobutyl-3-propylsuccinamide] gave a half-maximal inhibitory concentration (IC50) of 0.015 µM. Turning to `CCC[C@H](C(=O)NO)[C@@H](CC(C)C)C(=O)N[C@H]1CCCCN(Cc2cccc(Oc3ccccc3)c2)C1=O` [(2S,3R)-N1-hydroxy-3-isobutyl-N4-((S)-2-oxo-1-(3-phenoxybenzyl)azepan-3-yl)-2-propylsuccinamide], half-maximal inhibition (IC50) was put at 0.2 µM.

For orientation: IC50 means the concentration that inhibits the measured activity by half.
